Results: PubChem BioAssay AID1259407 (Chemical Carcinogenesis Research Information System (CCRIS), 2018)
The source made the active and inactive calls. No rule for the calls is given here.

Tested on: CCRIS mutagenicity, Ames/micronucleus/aberration tests
Experiment: CCRIS mutagenicity studies
Conditions: Method: STANDARD PLATE
[1] = Test System: AMES SALMONELLA TYPHIMURIUM, Strain/Indicator: TA100, Metabolic Activation: NONE

SMILES: COc1cc(-c2ccc(N=C=O)c(OC)c2)ccc1N=C=O
- mutagenic call (Test System: AMES SALMONELLA TYPHIMURIUM, Strain/Indicator: TA98, Metabolic Activation: HAMSTER, LIVER, S-9, AROCLOR 1254): active; positive
- mutagenic call (Test System: AMES SALMONELLA TYPHIMURIUM, Strain/Indicator: TA98, Metabolic Activation: HAMSTER, LIVER, S-9): active; positive
- mutagenic call (Test System: AMES SALMONELLA TYPHIMURIUM, Strain/Indicator: TA98, Metabolic Activation: MOUSE, LIVER, S-9, AROCLOR 1254): active; positive
- mutagenic call (Test System: AMES SALMONELLA TYPHIMURIUM, Strain/Indicator: TA98, Metabolic Activation: MOUSE, LIVER, S-9): active; positive
- mutagenic call (Test System: AMES SALMONELLA TYPHIMURIUM, Strain/Indicator: TA98, Metabolic Activation: RAT, LIVER, S-9, AROCLOR 1254): active; positive
- mutagenic call (Test System: AMES SALMONELLA TYPHIMURIUM, Strain/Indicator: TA98, Metabolic Activation: RAT, LIVER, S-9): active; positive
- mutagenic call (Test System: AMES SALMONELLA TYPHIMURIUM, Strain/Indicator: TA100, Metabolic Activation: HAMSTER, LIVER, S-9, AROCLOR 1254): inactive; negative
- mutagenic call (Test System: AMES SALMONELLA TYPHIMURIUM, Strain/Indicator: TA100, Metabolic Activation: HAMSTER, LIVER, S-9): inactive; negative
- mutagenic call (Test System: AMES SALMONELLA TYPHIMURIUM, Strain/Indicator: TA100, Metabolic Activation: MOUSE, LIVER, S-9, AROCLOR 1254): inactive; negative
- mutagenic call (Test System: AMES SALMONELLA TYPHIMURIUM, Strain/Indicator: TA100, Metabolic Activation: MOUSE, LIVER, S-9): inactive; negative
- mutagenic call [1]: inactive; negative
- mutagenic call (Test System: AMES SALMONELLA TYPHIMURIUM, Strain/Indicator: TA1535, Metabolic Activation: HAMSTER, LIVER, S-9, AROCLOR 1254): inactive; negative
- mutagenic call (Test System: AMES SALMONELLA TYPHIMURIUM, Strain/Indicator: TA1535, Metabolic Activation: HAMSTER, LIVER, S-9): inactive; negative
- mutagenic call (Test System: AMES SALMONELLA TYPHIMURIUM, Strain/Indicator: TA1535, Metabolic Activation: MOUSE, LIVER, S-9, AROCLOR 1254): inactive; negative
- mutagenic call (Test System: AMES SALMONELLA TYPHIMURIUM, Strain/Indicator: TA1535, Metabolic Activation: MOUSE, LIVER, S-9): inactive; negative
- mutagenic call (Test System: AMES SALMONELLA TYPHIMURIUM, Strain/Indicator: TA1535, Metabolic Activation: NONE): inactive; negative
- mutagenic call (Test System: AMES SALMONELLA TYPHIMURIUM, Strain/Indicator: TA1535, Metabolic Activation: RAT, LIVER, S-9, AROCLOR 1254): inactive; negative
- mutagenic call (Test System: AMES SALMONELLA TYPHIMURIUM, Strain/Indicator: TA1535, Metabolic Activation: RAT, LIVER, S-9): inactive; negative
- mutagenic call (Test System: AMES SALMONELLA TYPHIMURIUM, Strain/Indicator: TA1537, Metabolic Activation: HAMSTER, LIVER, S-9, AROCLOR 1254): inactive; negative
- mutagenic call (Test System: AMES SALMONELLA TYPHIMURIUM, Strain/Indicator: TA1537, Metabolic Activation: HAMSTER, LIVER, S-9): inactive; negative
- mutagenic call (Test System: AMES SALMONELLA TYPHIMURIUM, Strain/Indicator: TA1537, Metabolic Activation: MOUSE, LIVER, S-9, AROCLOR 1254): inactive; negative
- mutagenic call (Test System: AMES SALMONELLA TYPHIMURIUM, Strain/Indicator: TA1537, Metabolic Activation: MOUSE, LIVER, S-9): inactive; negative
- mutagenic call (Test System: AMES SALMONELLA TYPHIMURIUM, Strain/Indicator: TA1537, Metabolic Activation: NONE): inactive; negative
- mutagenic call (Test System: AMES SALMONELLA TYPHIMURIUM, Strain/Indicator: TA1537, Metabolic Activation: RAT, LIVER, S-9, AROCLOR 1254): inactive; negative
- mutagenic call (Test System: AMES SALMONELLA TYPHIMURIUM, Strain/Indicator: TA1537, Metabolic Activation: RAT, LIVER, S-9): inactive; negative
- mutagenic call (Test System: AMES SALMONELLA TYPHIMURIUM, Strain/Indicator: TA1538, Metabolic Activation: HAMSTER, LIVER, S-9, AROCLOR 1254): active; positive
- mutagenic call (Test System: AMES SALMONELLA TYPHIMURIUM, Strain/Indicator: TA1538, Metabolic Activation: HAMSTER, LIVER, S-9): active; positive
- mutagenic call (Test System: AMES SALMONELLA TYPHIMURIUM, Strain/Indicator: TA1538, Metabolic Activation: MOUSE, LIVER, S-9, AROCLOR 1254): active; positive
- mutagenic call (Test System: AMES SALMONELLA TYPHIMURIUM, Strain/Indicator: TA1538, Metabolic Activation: MOUSE, LIVER, S-9): active; positive
- mutagenic call (Test System: AMES SALMONELLA TYPHIMURIUM, Strain/Indicator: TA1538, Metabolic Activation: RAT, LIVER, S-9, AROCLOR 1254): active; positive
- mutagenic call (Test System: AMES SALMONELLA TYPHIMURIUM, Strain/Indicator: TA1538, Metabolic Activation: RAT, LIVER, S-9): active; positive
- mutagenic call (Test System: E. COLI, Strain/Indicator: WP2 UVRA, Metabolic Activation: HAMSTER, LIVER, S-9, AROCLOR 1254): inactive; negative
- mutagenic call (Test System: E. COLI, Strain/Indicator: WP2 UVRA, Metabolic Activation: HAMSTER, LIVER, S-9): inactive; negative
- mutagenic call (Test System: E. COLI, Strain/Indicator: WP2 UVRA, Metabolic Activation: MOUSE, LIVER, S-9, AROCLOR 1254): inactive; negative
- mutagenic call (Test System: E. COLI, Strain/Indicator: WP2 UVRA, Metabolic Activation: MOUSE, LIVER, S-9): inactive; negative
- mutagenic call (Test System: E. COLI, Strain/Indicator: WP2 UVRA, Metabolic Activation: NONE): inactive; negative
- mutagenic call (Test System: E. COLI, Strain/Indicator: WP2 UVRA, Metabolic Activation: RAT, LIVER, S-9, AROCLOR 1254): inactive; negative
- mutagenic call (Test System: E. COLI, Strain/Indicator: WP2 UVRA, Metabolic Activation: RAT, LIVER, S-9): inactive; negative

SMILES: C=CCc1ccccc1N.[Cl-].[Cl-].[Pd+2]
- mutagenic call (Test System: AMES SALMONELLA TYPHIMURIUM, Strain/Indicator: TA92, Metabolic Activation: NONE): inactive; negative
- mutagenic call (Test System: AMES SALMONELLA TYPHIMURIUM, Strain/Indicator: TA98, Metabolic Activation: NONE): inactive; negative
- mutagenic call [1]: active; positive
- mutagenic call (Test System: AMES SALMONELLA TYPHIMURIUM, Strain/Indicator: TA2410, Metabolic Activation: NONE): active; positive
